From PMC5298231, “The Malaria Parasite's Lactate Transporter PfFNT Is the Target of Antiplasmodial Compounds Identified in Whole Cell Phenotypic Screens” (PLoS Pathogens, 2017)
Entries after “also recorded” stand apart in the source; their conditions may differ. Like-named read-outs stand apart in the source and are kept apart here.

Assays:
[1] = system: 3D7 parasites; conditions: ref http://www.mmv.org/research-development/malaria-box-supporting-information; read-out: IC50 against 3D7 parasites, other groups; cited from earlier work
[2] = target: T1, native PfFNT (Plasmodium falciparum, UniProt O77389); format: cell-based; conditions: native PfFNT in Xenopus oocytes; pH 6.4, 27.5°C, 10 min; mean ± SEM, n = 4; read-out: IC50, inhibition of PfFNT-mediated L-[14C]lactate transport
T1 construct: expressed in transfected cells; host or cells: Xenopus laevis oocytes (cRNA microinjected, 30 ng)
T1 sequence (O77389 whole entry): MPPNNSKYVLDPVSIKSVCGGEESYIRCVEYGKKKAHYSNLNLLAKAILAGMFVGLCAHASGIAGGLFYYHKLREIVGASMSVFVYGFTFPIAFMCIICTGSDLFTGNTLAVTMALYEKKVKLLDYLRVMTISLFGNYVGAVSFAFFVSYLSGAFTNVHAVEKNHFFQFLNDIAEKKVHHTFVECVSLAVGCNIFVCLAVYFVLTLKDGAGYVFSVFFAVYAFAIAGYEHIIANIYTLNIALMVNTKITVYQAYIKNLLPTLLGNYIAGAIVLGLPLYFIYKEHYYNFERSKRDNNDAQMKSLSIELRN
Procedure: (§1) The PfFNT-mediated uptake of L-[^14C]lactate by oocytes expressing native PfFNT (black symbols) or oocytes expressing PfFNT^Gly107Ser (white symbols) was measured in the presence of a range of different concentrations of MMV007839 (A) and MMV000972 (B). […] To enable a visual comparison between the native PfFNT and PfFNT^Gly107Ser datasets, only part of the concentration range used for the latter is shown in the main panels. The insets show the data obtained for PfFNT^Gly107Ser over the full concentration range tested. In all cases, the data are averaged from four independent experiments (using oocytes from different frogs) and are shown ± SEM. The uptake was measured at 27.5°C over 10 min at pH 6.4 using 2.7 μM L-[^14C]lactate and 600 μM unlabelled L-lactate.
(§2) The oocyte expression vectors containing PfFNT, PfENT1 and PfCRT were made previously. […] The uptake of radiolabelled substrates was measured 2–5 days post-injection at 27.5°C in ND96 buffer (containing 96 mM NaCl, 2 mM KCl, 1 mM MgCl2, 1.8 mM CaCl2, 10 mM MES and 10 mM Tris-base; pH-adjusted to the value specified in the relevant Figure legends). […] The oocytes were then transferred to separate wells of a 96-well plate, lysed with 10% SDS, and the radioactivity measured as described previously.

[3] = system: Dd2 parent parasites; test: Parasite proliferation assay, Dd2 parent; format: cell-based, Plasmodium falciparum
Procedure: Parasite proliferation was measured in 96-well plates using a fluorescent DNA-intercalating dye [45]. The assays were initiated with erythrocytes infected with predominantly ring-stage parasites, and the starting parasitaemia was 0.5–1% and the haematocrit was 1%.

[4] = target: T2, PfFNT^Gly107Ser (Plasmodium falciparum, UniProt O77389, G107S); test: PfFNT-mediated L-[14C]lactate uptake by Xenopus oocytes expressing PfFNT Gly107Ser; format: cell-based; conditions: PfFNT Gly107Ser in Xenopus oocytes; pH 6.4, 27.5°C, 10 min; mean ± SEM, n = 4; read-out: IC50, inhibition of PfFNT-mediated L-[14C]lactate transport
T2 construct: expressed in transfected cells; host or cells: Xenopus laevis oocytes (cRNA microinjected, 30 ng)
T2 sequence (O77389 1-309 G107S): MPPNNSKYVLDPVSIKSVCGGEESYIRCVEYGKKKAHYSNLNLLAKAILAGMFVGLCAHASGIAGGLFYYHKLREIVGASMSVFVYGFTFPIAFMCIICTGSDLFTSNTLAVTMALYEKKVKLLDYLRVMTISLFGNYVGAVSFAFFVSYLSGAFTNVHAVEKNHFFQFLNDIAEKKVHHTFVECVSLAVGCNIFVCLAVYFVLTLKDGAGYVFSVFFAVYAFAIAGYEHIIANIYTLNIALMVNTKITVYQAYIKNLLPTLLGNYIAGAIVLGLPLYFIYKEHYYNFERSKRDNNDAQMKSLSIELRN
Procedure: as §1, §2

[5] = ref [36]; cited from earlier work
[6] = system: isolated 3D7 P. falciparum trophozoites; test: L-[14C]lactate uptake by isolated 3D7 trophozoites; conditions: pH 6.1, 4°C, 20 s
[7] = system: PfENT1; test: [3H]hypoxanthine uptake by Xenopus oocytes expressing PfENT1; format: cell-based, Plasmodium falciparum
Text: (§3) (PfCRT; from the chloroquine-resistant Dd2 strain) and on [^3H]hypoxanthine transport by oocytes expressing the P. falciparum equilibrative nucleoside/nucleobase transporter PfENT1 [27, 28].
The oocyte expression vectors containing PfFNT, PfENT1 and PfCRT were made previously. The Gly107Ser mutant form of PfFNT was generated through site-directed mutagenesis of the oocyte expression vector containing wild-type (3D7) PfFNT using primers 9 and 10 (S2 Table). Oocytes were harvested from adult female Xenopus laevis frogs and prepared as described previously. cRNA was made using the mMessage mMachine T7 transcription kit and the MEGAclear kit (Ambion) and microinjected into oocytes as outlined elsewhere. The amount of cRNA injected (per oocyte) was 30 ng for PfFNT, 10 ng for PfENT1, and 20 ng for PfCRT. The uptake of radiolabelled substrates was measured 2–5 days post-injection at 27.5°C in ND96 buffer (containing 96 mM NaCl, 2 mM KCl, 1 mM MgCl2, 1.8 mM CaCl2, 10 mM MES and 10 mM Tris-base; pH-adjusted to the value specified in the relevant Figure legends). […] Each experiment used ten oocytes for each condition tested. The influx of the radiolabelled substrate was halted by removing the reaction buffer and washing the oocytes twice in ice-cold ND96 buffer (3.5 mL). The oocytes were then transferred to separate wells of a 96-well plate, lysed with 10% SDS, and the radioactivity measured as described previously.
The data are averaged from four to five independent experiments (performed using oocytes from different frogs) and are shown + SEM. In B, the uptake of [^3H]hypoxanthine (0.36 μM) was measured over 30 min at pH 6.0. […] The data are averaged from three to six independent experiments (performed using oocytes from different frogs) and are shown + SEM. […] (TIF) Click here for additional data file.

[8] = system: Dd2 parental parasites; test: L-[14C]lactate uptake by isolated Dd2 parental parasites; conditions: read-out: IC50, inhibition of L-[14C]lactate uptake; Dd2 (parental) parasites; pH 6.1, 4°C, 20 s; mean ± SEM
[9] = system: MMV007839-selected culture A (PfFNT Gly107Ser); test: Parasite proliferation assay, MMV007839-selected culture A; format: cell-based, Plasmodium falciparum; conditions: for IC50: MMV007839-selected culture A, mean ± SEM, read-out: IC50 value, growth inhibition
Procedure: (§4) Parasite proliferation was measured in 96-well plates using a fluorescent DNA-intercalating dye. The assays were initiated with erythrocytes infected with predominantly ring-stage parasites, and the starting parasitaemia was 0.5–1% and the haematocrit was 1%.
(§5) For MMV007839-selected culture A, the drug concentration was increased by 5 nM increments on Day 18, Day 21, and every two days thereafter. […] The cultures were provided with fresh medium and blood and diluted to reduce the parasitaemia as needed.

[10] = system: non-injected oocytes; format: cell-based, Xenopus laevis; conditions: full range of inhibitor concentrations
[11] = system: 3D7 P. falciparum trophozoites; test: Cytosolic pH (pHcyt) measurement in BCECF-loaded saponin-isolated trophozoites
[12] = system: MMV007839-selected culture B (PfFNT Gly107Ser); test: Parasite proliferation assay, MMV007839-selected culture B; format: cell-based, Plasmodium falciparum; conditions: read-out: IC50 value, growth inhibition
Procedure: as §4, §5

[13] = system: PfCRT (from the chloroquine-resistant Dd2 strain); test: [3H]chloroquine uptake by Xenopus oocytes expressing PfCRT; format: cell-based, Plasmodium falciparum; conditions: 1 μM and 4 μM; pH 5.5
Text: as §3
The oocyte expression vectors containing PfFNT, PfENT1 and PfCRT were made previously. The Gly107Ser mutant form of PfFNT was generated through site-directed mutagenesis of the oocyte expression vector containing wild-type (3D7) PfFNT using primers 9 and 10 (S2 Table). Oocytes were harvested from adult female Xenopus laevis frogs and prepared as described previously. cRNA was made using the mMessage mMachine T7 transcription kit and the MEGAclear kit (Ambion) and microinjected into oocytes as outlined elsewhere. […] The uptake of radiolabelled substrates was measured 2–5 days post-injection at 27.5°C in ND96 buffer (containing 96 mM NaCl, 2 mM KCl, 1 mM MgCl2, 1.8 mM CaCl2, 10 mM MES and 10 mM Tris-base; pH-adjusted to the value specified in the relevant Figure legends). […] The oocytes were then transferred to separate wells of a 96-well plate, lysed with 10% SDS, and the radioactivity measured as described previously.
The data are averaged from four to five independent experiments (performed using oocytes from different frogs) and are shown + SEM. In B, the uptake of [^3H]hypoxanthine (0.36 μM) was measured over 30 min at pH 6.0. […]

[14] = system: PfFNT^Gly107Ser mutant parasites (MMV007839-selected culture B); test: L-[14C]lactate uptake by isolated PfFNT Gly107Ser mutant parasites; conditions: read-out: IC50, inhibition of L-[14C]lactate transport, pH 6.1, 4°C, 20 s, mean ± SEM

O=C1CC(O)(C(F)(F)C(F)(F)F)Oc2ccccc21 (stereo not shown) [MMV000972]
IC50 [1]: 2600 nM | IC50 [2]: 50 ± 1 nM | IC50 ([3]; Dd2 parent, mean ± SEM, read-out: IC50 value, growth inhibition): 1800 ± 200 nM | IC50 [4]: 6300 ± 900 nM | Toxicity in Malaria Box toxicity testing [5]: display toxicity in some assays | Inhibition of L-[14C]lactate influx ([6]; 0.5 μM): complete inhibition | Inhibition of L-[14C]lactate uptake ([6]; 2 μM): complete inhibition | Inhibition of [3H]hypoxanthine uptake by PfENT1-expressing oocytes ([7]; 1 μM and 4 μM, pH 6.0, 30 min): not inhibiting | Effect on [3H]hypoxanthine uptake by PfENT1-expressing oocytes ([7]; 1 μM, P < 0.05): slight increase | IC50 [8]: 49 ± 14 nM | IC50 [9]: 59600 ± 400 nM | Fold increase of growth IC50 relative to Dd2 parent ([9]; both MMV007839-selected cultures (A and B) vs Dd2 parent): > 30 fold | Effect on L-[14C]lactate transport into control (non-injected) oocytes [10]: no changes | Lactate-induced abrupt acidification of parasite cytosol after pre-treatment ([11]; 2.5 μM pre-treatment, 10 mM L-lactate, 4°C): no such abrupt acidification | Rate of cytosolic acidification after addition of lactate ([11]; 2.5 μM, 4°C, 10 mM L-lactate, mean ± SEM, n = 3): 0.015 ± 0.006 pH unit/min | Rate of cytosolic acidification before addition of lactate ([11]; 2.5 μM, 4°C, mean ± SEM, n = 3): 0.012 ± 0.003 pH unit/min | Cytosolic pH restored after restoration of glucose ([11]; 2.5 μM, glucose (22 mM) restored to glucose-deprived parasites, gradual alkalinisation after initial acidification of ~2 min): approximately 7.1 | Effect on cytosolic pH in glucose-containing medium ([11]; glucose-containing medium, 37°C (Fig 2B,C: 1 μM)): cytosolic acidification | IC50 ([12]; MMV007839-selected culture B, mean ± SEM): 59700 ± 1400 nM | Effect on transport of [3H]chloroquine via PfCRT [13]: not inhibiting | IC50 [14]: 15200 ± 1900 nM

C[C@@H]1CC[C@H]2[C@@H](C)C(=O)O[C@@H]3O[C@@]4(C)CC[C@@H]1[C@]32OO4 [Artemisinin, reference compound]
IC50 ([3]; Plasmodium falciparum, DD2, read-out: IC50 value, growth inhibition): 15.6 nM | IC50 ([9]; Plasmodium falciparum): 22 ± 3.3 nM | Response of MMV007839-selected cultures compared with Dd2 parental parasites ([9]; both MMV007839-selected cultures (A and B), P > 0.1): not significantly different; also recorded: not affecting | IC50 ([12]; Plasmodium falciparum): 16.5 ± 0.4 nM
